Measurements as given in ChEMBL document CHEMBL1152675, “3,4-Dihydropyrimido(1,2-a)indol-10(2H)-ones as potent non-peptidic inhibitors of caspase-3” (Bioorg Med Chem, 2009).

Test: Chemical stability in 90% deionized water after 24 hrs by NMR spectroscopy
Assay type: physicochemical
Details: read-out: Stability

Question: For `O=C1C2=NCC3(CCCCC3)CN2c2ccc(S(=O)(=O)N3CCC[C@H]3COc3ccccc3)cc21`, which remaining at 24 h is on record?
Answer: 72%

Question: Which remaining at 24 h does the source give for `COC[C@@H]1CCCN1S(=O)(=O)c1ccc2c(c1)C(=O)C1=NCC3(CCCCC3)CN12` here?
Answer: 71%

Question: For `COC[C@@H]1CCCN1S(=O)(=O)c1ccc2c(c1)C(=O)C1=NCC3(CCCC3)CN12`, which remaining at 24 h is on record?
Answer: 87%

Question: With `O=C1C2=NCC3(CCC3)CN2c2ccc(S(=O)(=O)N3CCC[C@H]3COc3ccccc3)cc21` as the compound, how does the remaining at 24 h read?
Answer: 69%

Question: For `O=C1C2=NCC3(CCCC3)CN2c2ccc(S(=O)(=O)N3CCC[C@H]3COc3ccccc3)cc21`, which remaining at 24 h is on record?
Answer: 89%

Question: Which remaining at 24 h does the source give for `COC[C@@H]1CCCN1S(=O)(=O)c1ccc2c(c1)C(=O)C1=NCC3(CCC3)CN12` here?
Answer: 74%
